The text below walks through data of patent US20240261266A1, “BENZIMIDAZOLE COMPOUND OR SALT THEREOF, CANINE FILARIASIS CONTROL AGENT CONTAINING SAME, AND METHOD OF USE THEREOF” (NIHON NOHYAKU CO., LTD., priority 2021, published 2024).

The assay deals with Canine filariae (Dirofilaria immitis) L-3 stage larvae. The experiment in a line: Impact evaluation test on growth of canine filariae (L3 to L4). The following applies: 168 h, read-out: growth inhibition rate (growth from L3-stage larvae to L4-stage larvae).

Each structure is given as a SMILES string. A value given as a limit tells only on which side of the number the result lay.

The term inhibition denotes the share of the control response that was lost under treatment. `CCCCC#Cc1ccc(-c2nc3c(Br)cc(Br)cc3[nH]2)o1` [Compound 1-11, 4,6-dibromo-2-(5-(1-hexynyl)-2-furyl)benzimidazole]: the inhibition at 50 ppm is not below 50%.
